Measured values: patent US11365192B2, “Pyridine compound substituted with azole” (TAISHO PHARMACEUTICAL CO., LTD., priority 2017, dated 2022)

How the values were obtained:
human CYP4A11 = human CYP4A11 (Homo sapiens (Human), UniProt Q02928); experiment: Inhibition test against 20-HETE producing enzyme CYP4A11 (luciferine derivative, luminescence); assay type: biochemical
Method in brief: (§1)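 E. coli membranes (100 μg/mL protein) expressing human enzyme, room temperature 60 min, luciferin-derivative luminescence; IC50 from % inhibition. CYP4F2: 50 mM KPO4 pH 7.4, 2.5 μM substrate, 1 mM NADPH. CYP4A11: 100 mM Tris-HCl pH 7.5, 60 μM substrate, NADP+/glucose 6-phosphate/G6PDH regenerating system, 3.3 mM MgCl2.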

human CYP4F2 = human CYP4F2 (Homo sapiens (Human), UniProt P78329); experiment: Inhibition test against 20-HETE producing enzyme CYP4F2 (luciferine derivative, luminescence); assay type: biochemical
Method in brief: as §1

[1] = E. coli membrane fraction expressing human CYP4A11, 60 μM luciferine derivative, room temperature 60 minutes
[2] = E. coli membrane fraction expressing human CYP4F2, 2.5 μM luciferine derivative, room temperature 60 minutes
[3] = human CYP4A11, luciferine derivative, luminescence
[4] = human CYP4F2, luciferine derivative, luminescence

human CYP4F2, sequence (P78329 5-520): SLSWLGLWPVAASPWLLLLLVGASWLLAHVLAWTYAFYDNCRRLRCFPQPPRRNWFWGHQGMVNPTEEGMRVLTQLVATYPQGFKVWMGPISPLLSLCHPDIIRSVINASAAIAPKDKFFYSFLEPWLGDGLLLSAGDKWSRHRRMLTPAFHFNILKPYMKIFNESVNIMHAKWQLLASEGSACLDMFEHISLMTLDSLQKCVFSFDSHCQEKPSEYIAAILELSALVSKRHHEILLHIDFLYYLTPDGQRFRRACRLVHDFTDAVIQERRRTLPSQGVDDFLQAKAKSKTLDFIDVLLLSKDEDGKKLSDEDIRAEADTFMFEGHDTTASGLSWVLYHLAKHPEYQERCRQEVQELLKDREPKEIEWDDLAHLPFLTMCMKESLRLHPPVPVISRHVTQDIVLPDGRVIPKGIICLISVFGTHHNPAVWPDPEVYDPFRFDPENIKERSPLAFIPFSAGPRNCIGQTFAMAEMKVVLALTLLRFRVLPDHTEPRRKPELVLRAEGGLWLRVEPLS
human CYP4A11, sequence (Q02928 5-519): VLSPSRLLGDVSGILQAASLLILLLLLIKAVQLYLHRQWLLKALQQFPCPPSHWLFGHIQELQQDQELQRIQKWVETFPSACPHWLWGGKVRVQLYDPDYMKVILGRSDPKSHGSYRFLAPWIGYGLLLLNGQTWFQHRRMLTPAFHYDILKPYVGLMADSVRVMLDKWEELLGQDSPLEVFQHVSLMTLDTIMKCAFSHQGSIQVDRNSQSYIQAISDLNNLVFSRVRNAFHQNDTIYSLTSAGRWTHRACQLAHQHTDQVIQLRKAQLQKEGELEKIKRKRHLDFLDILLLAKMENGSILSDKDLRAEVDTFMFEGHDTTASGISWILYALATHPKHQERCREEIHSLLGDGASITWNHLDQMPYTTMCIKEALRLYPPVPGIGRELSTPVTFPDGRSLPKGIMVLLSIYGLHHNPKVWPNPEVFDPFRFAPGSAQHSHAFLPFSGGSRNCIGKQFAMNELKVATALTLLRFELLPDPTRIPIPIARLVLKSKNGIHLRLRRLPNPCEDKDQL

| Compound | IC50 (human CYP4A11; [1]) | IC50 (human CYP4F2; [2]) | IC50 (human CYP4A11; [3]) | IC50 (human CYP4F2; [4]) |
| --- | --- | --- | --- | --- |
| O=C(O)Cc1ccc(CCOc2ccc(-c3ccn[nH]3)nc2)cc1 [Example 1-13] | 0.031 µM | 2.7 µM |  |  |
| O=C(O)Cc1cccc(CCCOc2ccc(-c3ccn[nH]3)nc2)c1 [Example 32-1, 2-[3-[3-[[6-(1H-Pyrazol-5-yl)-3-pyridinyl]oxy]propyl]phenyl]acetic Acid] | 0.033 µM | 0.43 µM |  |  |
| O=C(O)c1cc(-c2cccc(COc3ccc(-c4ccn[nH]4)nc3)c2)ccn1 [Example 8-11] | 0.014 µM | 0.12 µM |  |  |
| O=C(O)Cc1cccc(COc2ccc(-c3ccn[nH]3)nc2)c1 [Example 22-3] | 0.016 µM | 17 µM |  |  |
| CC(C)(COc1cc(CCCOc2ccc(-c3ccn[nH]3)nc2)ccn1)C(=O)O [Example 71-43] |  |  | 0.87 µM | 0.25 µM |
| O=C(O)C1CCN(S(=O)(=O)c2cccc(COc3ccc(-c4ccn[nH]4)nc3)c2)CC1 [Example 22-8] | 0.068 µM | 1.5 µM |  |  |
| CC(=O)N1CCC(CCCCCCOc2ccc(-c3ccn[nH]3)nc2)(C(=O)O)C1 (centres unmarked) [Example 3-6] | 0.81 µM | 2.7 µM |  |  |
| OCC(F)(F)c1cccc(COc2ccc(-c3ccn[nH]3)nc2)c1 [Example 60-2, 2,2-Difluoro-2-[3-[[6-(1H-pyrazol-5-yl)-3-pyridinyl]oxymethyl]phenyl]ethanol] | 0.029 µM | 0.13 µM |  |  |
| O=C(O)Cc1cccc(COc2ccc(-c3cn[nH]c3)nc2)c1 [Example 38-2, 2-[3-[[6-(1H-Pyrazol-4-yl)-3-pyridinyl]oxymethyl]phenyl]acetic Acid] | 0.011 µM | 19 µM |  |  |
| O=C(O)Cc1ccccc1COc1ccc(-c2ccn[nH]2)nc1 [Example 21-2] | 3.8 µM | > 50 µM |  |  |
| O=C(N[C@H](Cc1ccccc1)C(=O)O)c1cccc(COc2ccc(-c3ccn[nH]3)nc2)c1 [Example 45-12] |  |  | 0.22 µM | 0.89 µM |
| O=C(O)C12CCC(COc3ccc(-c4ccns4)nc3)(CC1)CC2 [Example 39-2] | 0.018 µM | 22 µM |  |  |
| CC(C)(CCCCCCCOc1ccc(-c2ccn[nH]2)nc1)C(=O)O [Example 1-62] | 0.023 µM | 0.096 µM |  |  |
| O=C(N[C@H]1CC[C@H](C(=O)O)CC1)c1cccc(COc2ccc(-c3ccn[nH]3)nc2)c1 [Example 45-20] |  |  | 0.41 µM | 2.1 µM |
| O=C(O)CCC(=O)N1CCC(COc2ccc(-c3ccn[nH]3)nc2)CC1 [Example 48-1, 4-Oxo-4-[4-[[6-(1H-pyrazol-5-yl)-3-pyridinyl]oxymethyl]-1-piperidinyl]butanoic Acid] | 0.62 µM | 11 µM |  |  |
| O=C(O)C1COc2c(CCOc3ccc(-c4ccn[nH]4)nc3)cccc2C1 (centres unmarked) [Example 71-12] |  |  | 0.018 µM | 1.3 µM |
| O=C(O)CCCc1ccc(CCOc2ccc(-c3ccn[nH]3)nc2)cc1 [Example 4-2] | 0.25 µM | 0.16 µM |  |  |
| O=C(O)CCCCCOc1ccc(-c2ccn[nH]2)nc1 [Example 1-47, 6-[[6-(1H-Pyrazol-5-yl)-3-pyridinyl]oxy]hexanoic Acid] | 0.068 µM | 14 µM |  |  |
| CC(=O)N1CCC(CCCCCCOc2ccc(-c3ccn[nH]3)nc2)(C(=O)O)CC1 [Example 3-5] | 2.2 µM | 3 µM |  |  |
| O=C(O)C1CC1c1ccc(COc2ccc(-c3ccn[nH]3)nc2)cc1F (centres unmarked) [Example 70-11, 2-[2-Fluoro-4-[[6-(1H-pyrazol-5-yl)pyridin-3-yl]oxymethyl]phenyl]cyclopropane-1-carboxylic Acid] |  |  | 0.043 µM | 0.33 µM |
| O=C(O)C12CCC(C(=O)N3CCC[C@@H](COc4ccc(-c5ccn[nH]5)nc4)C3)(CC1)CC2 [Example 46-4] | 1 µM | 18 µM |  |  |
| CC(C)(OCCCCCCCOc1ccc(-c2cnco2)nc1)C(=O)O [Example 76-1, 2-Methyl-2-[7-[6-(1,3-oxazol-5-yl)pyridin-3-yl]oxyheptoxy]propanoic Acid] |  |  | 0.74 µM | 1.5 µM |
| O=C(O)[C@H]1CCc2ccc(CCOc3ccc(-c4ccn[nH]4)nc3)cc2O1 [Example 71-22-1] |  |  | 0.25 µM | 0.31 µM |

| Compound | IC50 (human CYP4A11; [1]) | IC50 (human CYP4F2; [2]) | IC50 (human CYP4A11; [3]) | IC50 (human CYP4F2; [4]) |
| --- | --- | --- | --- | --- |
| CC(C)(Oc1cc(CCCOc2ccc(-c3ccn[nH]3)nc2)ccn1)C(=O)O [Example 71-42] |  |  | 0.63 µM | 2.1 µM |
| CCC(CC)(CCCCOc1ccc(-c2ccn[nH]2)nc1)C(=O)O [Example 1-64, 2,2-Diethyl-6-[[6-(1H-pyrazol-5-yl)-3-pyridinyl]oxy]hexanoic Acid] | 0.028 µM | 7.5 µM |  |  |
| CS(=O)(=O)c1cc(O)cc(COc2ccc(-c3[nH]ncc3Cl)nc2)c1 [Example 66-1, 3-[[6-(4-Chloro-1H-pyrazol-5-yl)-3-pyridinyl]oxymethyl]-5-methylsulfonylphenol] | 0.033 µM | 0.016 µM |  |  |
| O=C(O)C1(CCCCCCOc2ccc(-c3ccn[nH]3)nc2)CCCCC1 [Example 1-44] | 0.11 µM | 0.51 µM |  |  |
| CN(CC12CC(COc3ccc(-c4ccn[nH]4)nc3)(C1)C2)S(C)(=O)=O [Example 58-2, N-Methyl-N-[[3-[[6-(1H-pyrazol-5-yl)-3-pyridinyl]oxymethyl]-1-bicyclo[1.1.1]pentanyl]methyl]methanesulfonamide] | 0.24 µM | 0.0051 µM |  |  |
| CC(O)(c1cccc(COc2ccc(-c3ccn[nH]3)nc2)c1)C(F)(F)F (centres unmarked) [Example 27-2] | 0.015 µM | 0.3 µM |  |  |
| O=C(O)Cc1ccc(CCCOc2ccc(-c3ccn[nH]3)nc2)cc1 [Example 8-8] | 0.26 µM | 1.1 µM |  |  |
| O=C(O)CC1CCCCN1C(=O)c1cccc(COc2ccc(-c3ccn[nH]3)nc2)c1 (centres unmarked) [Example 45-32] |  |  | 0.66 µM | 6.8 µM |
| O=C(O)C1CCCC(COc2ccc(-c3ccn[nH]3)nc2)C1 (centres unmarked) [Example 1-54] | 0.057 µM | 3.4 µM |  |  |
| O=C(O)c1cc(COc2ccc(-c3ccn[nH]3)nc2)ccn1 [Example 1-40, 4-[[6-(1H-Pyrazol-5-yl)-3-pyridinyl]oxymethyl]-2-pyridinecarboxylic Acid] | 0.58 µM | 15 µM |  |  |
| O=C(O)c1ncc(-c2cccc(COc3ccc(-c4ccn[nH]4)nc3)c2)cn1 [Example 22-7] | 0.038 µM | 1.2 µM |  |  |
| O=C(O)/C=C/c1ccc(CCOc2ccc(-c3ccn[nH]3)nc2)cc1 [Example 70-6] |  |  | 0.076 µM | 0.047 µM |
| O=C(O)CCc1cccc(CCCOc2ccc(-c3ccn[nH]3)nc2)c1 [Example 30-3, 3-[3-[3-[[6-(1H-Pyrazol-5-yl)-3-pyridinyl]oxy]propyl]phenyl]propanoic Acid] | 0.15 µM | 0.37 µM |  |  |
| O=C(O)c1ccc(-c2cccc(COc3ccc(-c4ccn[nH]4)nc3)c2)cn1 [Example 31-3, 5-[3-[[6-(1H-Pyrazol-5-yl)-3-pyridinyl]oxymethyl]phenyl]-2-pyridinecarboxylic Acid] | 0.025 µM | 0.18 µM |  |  |
| CC(C)(Oc1cc(CCOc2ccc(-c3ccn[nH]3)nc2)ccn1)C(=O)O [Example 71-34] |  |  | 1.1 µM | 36 µM |
| O=C(O)CCc1cccc(COc2ccc(-c3ccn[nH]3)nc2)c1F [Example 70-2, 3-[2-Fluoro-3-[[6-(1H-pyrazol-5-yl)pyridin-3-yl]oxymethyl]phenyl]propanoic Acid] |  |  | 0.028 µM | 1.1 µM |
| CC(C)(Oc1cccc(COc2ccc(-c3ccn[nH]3)nc2)n1)C(=O)O [Example 1-66] | 0.33 µM | > 50 µM |  |  |
| O=C(O)c1cccc(CNC(=O)c2cccc(COc3ccc(-c4ccn[nH]4)nc3)c2)c1 [Example 45-25] |  |  | 0.04 µM | 0.37 µM |
| O=c1[nH]c(CCCCCOc2ccc(-c3ccn[nH]3)nc2)no1 [Example 62-2, 3-[5-[[6-(1H-Pyrazol-5-yl)-3-pyridinyl]oxy]pentyl]-4H-1,2,4-oxadiazol-5-one] | 0.027 µM | 1.9 µM |  |  |
| O=C(O)C1CCc2c(COc3ccc(-c4ccn[nH]4)nc3)cccc2O1 (centres unmarked) [Example 71-11] |  |  | 0.022 µM | 29 µM |
| O=C(O)C1CC1c1ccc(CCOc2ccc(-c3ccn[nH]3)nc2)c(F)c1 (centres unmarked) [Example 71-16] |  |  | 0.19 µM | 0.091 µM |
| O=C(O)Cn1cc(CCCOc2ccc(-c3ccn[nH]3)nc2)nn1 [Example 35-1, 2-[4-[3-[[6-(1H-Pyrazol-5-yl)-3-pyridinyl]oxy]propyl]-1-triazolyl]acetic Acid] | 3 µM | 20 µM |  |  |
| CC(Oc1ccc(-c2ccn[nH]2)nc1)c1ccc(C(=O)O)cc1 (centres unmarked) [Example 1-2] | 0.25 µM | 42 µM |  |  |
